From patent US20230118517A1, “METHODS OF TREATING MULTIPLE MYELOMA” (Seagen Inc., priority 2020, published 2023)

Tests used:
FcγRIII [1] = test: FcγRIII signaling ADCC reporter bioassay, NCI-H929 target cells; assay type: cell-based; conditions: NCI-H929 bound with antibody dose titrations, +/- DAPT, CD16A-Jurkat effector cells 6:1
Experimental: (§1) NCI-H929 or Molp-8 MM target cells were incubated with and without 1 μM DAPT for 24 hrs. […] FcγRIII signaling was determined using a surrogate assay as manufacturer describes (Promega ADCC reporter bioassay cat #G9302). Cells were bound with antibody dose titrations+/−GSI for 30 minutes at 37° C. CD16A-Jurkat effector cells were then added with a 6:1 effector-to-target cell ratio. After an overnight incubation, the assay was developed with Bio-Glo and relative luminescence units (RLU) were measured on an Envision plate reader. […] Enhanced signaling is the first step in the primary mechanism of action of SEA-BCMA. This signaling can translate to increased anti-MM cell lysis through ADCC.

NCI-H929 cells = test: BCMA expression by flow cytometry after GSI incubation, NCI-H929; assay type: cell-based; conditions: NCI-H929, 1 μM DAPT for 24 hrs vs untreated
Molp-8 cells = test: BCMA expression by flow cytometry after GSI incubation, Molp-8; assay type: cell-based
FcγRIII [2] = test: FcγRIII signaling ADCC reporter bioassay, Molp-8 target cells; assay type: cell-based; conditions: Molp-8 bound with antibody dose titrations, +/- DAPT, CD16A-Jurkat effector cells 6:1
Experimental: as §1

U266 = test: BCMA expression by flow cytometry after Nirogacestat, U266; assay type: cell-based; conditions: U266, after incubation with Nirogacestat (FIG. 9A)
NF-κB p65 = NF-κB p65 activity ELISA on nuclear extract; assay type: cell-based; conditions: NCI-H929, serum-starved, 0.2 μM Nirogacestat 16 hrs, +/- 1 μg/ml APRIL
Experimental: The secondary mechanism of action of SEA-BCMA is to block BCMA proliferative cell signaling. Increased BCMA from GSI treatment is expected to induce increased BCMA signaling. Therefore, the block of this enhanced signaling by SEA-BCMA was tested. BCMA-expressing NCI-H929 cells were serum-starved with and without 0.2 μM Nirogacestat (purchased from SelleckChem) for 16 hrs. Cells were then bound with and without 20 μg/mL SEA-BCMA and incubated with and without 1 μg/ml recombinant human APRIL (R&D Systems) for 20 minutes at 37° C. in the presence or absence of 0.2 μM Nirogacestat. 1 μg of nuclear extract was assayed in duplicate for NF-κB p65 activity by ELISA (TransAM NFκB Chemi p65, Active Motif).

[3] = system: MM1R myeloma target cells; test: PBMC-mediated MM1R target cell killing, second experiment (PBMC pretreated 5 days, 0.5 μM pomalidomide); assay type: cell-based; conditions: PBMC:MM1R 10:1, overnight, with or without 0.5 μM pomalidomide
Experimental: (§2) Experiments were performed to test whether SEA-BCMA combines effectively with pomalidomide in vitro by combining PBMC effector cells with MM1R target cells treated with both pomalidomide and SEA-BCMA or antibody controls. The first experiment (FIG. 12A) benchmarks against MM standard of care elotuzumab and nonfucosylated parent BCMA antibody. The second experiment (FIG. 12B) benchmarks against MM standard of care daratumumab. MM1R target cells express 15,000 copies of BCMA, 12,000 copies of CS1 (elotuzumab target), and 36,000 copies of CD38 (daratumumab target).
In the second experiment (FIG. 12B), normal donor PBMCs of the FcγRIII V/F genotype were treated with or without 0.5 μM pomalidomide (APEx Bio, cat #A4211) for 5 days. The resulting PBMCs were then washed and mixed with CFSE (Invitrogen cat #V12883) labeled MM1R myeloma target cells at an effector-to-target cell ratio of 10:1. The mixture was then treated with a dose range of the following antibodies: SEA-BCMA, daratumumab, or non-binding hIgG1k antibody control (Sigma cat #15154) with or without 0.5 μM pomalidomide (APEx Bio, cat #A4211) and incubated overnight. Percentage live MM1R cells were then determined using the viability dye 7-AAD (BD Biosciences, cat #559925) by flow cytometry.

[4] = system: MM1R myeloma target cells; test: PBMC-mediated MM1R target cell killing, first experiment (48 hrs, 3 μM pomalidomide); assay type: cell-based; conditions: PBMC:MM1R 10:1, 48 hrs, with or without 3 μM pomalidomide
Experimental: as §2
In the first experiment (FIG. 12A), normal donor PBMCs of the FcγRIII V/F genotype were mixed with CFSE (Invitrogen cat #V12883) labeled MM1R myeloma target cells at an effector-to-target cell ratio of 10:1. The mixture was treated with a dose range of the following antibodies: SEA-BCMA, elotuzumab, WT-BCMA (fucosylated parent Ab), or non-binding hIgG1k antibody control (Sigma cat #15154) with or without 3 μM pomalidomide (APEx Bio, cat #A4211). After 48 hrs, the % live MM1R cells were then determined using the viability dye 7-AAD (BD Biosciences, cat #559925) by flow cytometry.

[5] = molecular target: T1, human BCMA (B-cell maturation antigen) (human, UniProt Q02223 1-184); test: flow cytometry on MM cells from bone marrow aspirates
T1 construct: Endogenous BCMA on MM1R and NCI-H929 cell lines and on patients' multiple myeloma cells; also called membrane BCMA; cell-surface BCMA
T1 sequence: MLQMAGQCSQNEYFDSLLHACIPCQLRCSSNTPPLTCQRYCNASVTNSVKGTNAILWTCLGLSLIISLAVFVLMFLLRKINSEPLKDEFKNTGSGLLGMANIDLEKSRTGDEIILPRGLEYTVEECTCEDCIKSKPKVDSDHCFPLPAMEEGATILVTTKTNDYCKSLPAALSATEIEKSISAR

[6] = molecular target: T1, human BCMA (B-cell maturation antigen); test: in vitro cell binding capacity assay, flow cytometry on MM1R cells

## C[C@H](NC(=O)Cc1cc(F)cc(F)c1)C(=O)N[C@H](C(=O)OC(C)(C)C)c1ccccc1 [DAPT]
FcγRIII [1]
  FcγRIII signaling: increased FcγRIII signaling
NCI-H929 cells
  BCMA expression: increased BCMA expression
Molp-8 cells; Molp-8, 1 μM DAPT for 24 hrs vs untreated
  BCMA expression: increased BCMA expression
FcγRIII [2]
  FcγRIII signaling: increased FcγRIII signaling

## CCC[C@H](N[C@H]1CCc2cc(F)cc(F)c2C1)C(=O)Nc1cn(C(C)(C)CNCC(C)(C)C)cn1 [Nirogacestat]
U266
  BCMA expression: increased BCMA expression
NF-κB p65
  NF-κB signaling (p65 activity, RLU): increased NF-κB signaling
Molp-8 cells; Molp-8, Nirogacestat treated vs untreated (FIG. 9A legend)
  BCMA expression: increased BCMA expression

## Daratumumab: anti-CD38 antibody, MM standard of care [reference compound]
[3]
  MM1R target cell killing (percentage live MM1R cells): less activity than SEA-BCMA

## Elotuzumab: MM standard of care antibody; target CS1 [reference compound]
[4]
  MM1R target cell killing (% live MM1R cells): no impact on cells unless pomalidomide was added

B1: APRIL (a proliferation-inducing ligand) (ligand, human, UniProt O75888 105-250, looked up)
chain: AVLTQKQKKQHSVLHLVPINATSKDDSDVTEVMWQPALRRGRGLQAQGYGVRIQDAGVYLLYSQVLFQDVTFTMGQVVSREGQGRQETLFRCIRSMPSHPDRAYNSCYSAGVFHLHQGDILSVIIPRARAKLNLSPHGTFLGFVKL
[5]
  binding result: binds

B2: SEA-BCMA (antibody, human IgG1, kappa, V domains shown)
VH: QVQLVQSGAEVKKPGASVKLSCKASGYTFTDYYIHWVRQAPGQGLEWIGYINPNSGYTNYAQKFQGRATMTADKSINTAYVELSRLRSDDTAVYFCTRYMWERVTGFFDFWGQGTMVTVSS
VL: DIQMTQSPSSVSASVGDRVTITCLASEDISDDLAWYQQKPGKAPKVLVYTTSSLQSGVPSRFSGSGSGTDFTLTISSLQPEDFATYFCQQTYKFPPTFGGGTKVEIKR
notes: also called non-fucosylated monoclonal anti-BCMA antibody
[6]
  binding result: binds
